Molecular target: ROCK2 (Homo sapiens, UniProt O75116)
Test: ROCK2 kinase inhibitor activity test (HTRF)
Type: biochemical
Settings: ROCK2 1 nM, substrate 500 nM, ATP 6 uM, 1.5 hours at room temperature, read-out: ROCK2 kinase inhibitor activities (IC50)
Experimental: ROCK2 Kinase Inhibitor Activity Test
1) 4× ROCK2 reaction solution, 4×ATP reaction solution, 4× substrate solution, and 4× compound solution were prepared according to experimental requirements.
2) 2.5 μL of 4× kinase solution and 2.5 μL of diluted 4× test compound solutions with different concentration gradients were added to a 384-well plate. 2 replicate wells were provided for each concentration, and an enzyme solution blank control group and a negative control group (DMSO group) were provided at the same time. Centrifugation was performed at 1000 rpm for 1 minute, and the enzyme and the compounds were mixed. 2.5 μL of 4× substrate solution was added to the 384-well plate, centrifugation was performed at 1000 rpm for 1 minute, 2.5 μL of 4× ATP solution was added to the 384-well plate, centrifugation was performed at 1000 rpm for 1 minute to start the enzyme reaction, and incubation was performed at room temperature for 1.5 hours.
The final concentration of each component of the ROCK2 reaction was: ROCK2: 1 nM, substrate: 500 nM, ATP: 6 uM, and the final concentration range of the test compounds was: 100 nM to 5 pM.
3) 4× Streptavidin-XL-665 detection solution was prepared according to experimental requirements.
4) After the enzyme reaction was completed, 5 ul of 4× Streptavidin-XL-665 detection solution was added to each well of the 384-well plate, and centrifugation was performed at 1000 rpm for 1 minute. 5 μL of 4×STK Antibody-cryptate detection antibody solution was added to each well of the 384-well plate, centrifugation was performed at 1000 rpm for 1 minute, and incubation was performed for 1 hour at room temperature.
5) After antibody incubation was completed, the signal value of each well was measured by the HTRF program on an Envision plate reader.
1) Taking the enzyme solution blank control group as 100% inhibition rate and the negative control group (DMSO group) as 0% inhibition rate, the percentage inhibition rate corresponding to each concentration of the test compound was calculated.
2) In the GraphPad Prism software, a nonlinear regression analysis was performed on the logarithm of the concentrations of the test compounds and the corresponding percentage inhibition rates to obtain the half-inhibitory concentrations (IC50) of the test compounds.
The ROCK2 kinase inhibitor activities (IC50) of the compounds detected by this method are as follows: […]

ROCK2, sequence (O75116 whole entry): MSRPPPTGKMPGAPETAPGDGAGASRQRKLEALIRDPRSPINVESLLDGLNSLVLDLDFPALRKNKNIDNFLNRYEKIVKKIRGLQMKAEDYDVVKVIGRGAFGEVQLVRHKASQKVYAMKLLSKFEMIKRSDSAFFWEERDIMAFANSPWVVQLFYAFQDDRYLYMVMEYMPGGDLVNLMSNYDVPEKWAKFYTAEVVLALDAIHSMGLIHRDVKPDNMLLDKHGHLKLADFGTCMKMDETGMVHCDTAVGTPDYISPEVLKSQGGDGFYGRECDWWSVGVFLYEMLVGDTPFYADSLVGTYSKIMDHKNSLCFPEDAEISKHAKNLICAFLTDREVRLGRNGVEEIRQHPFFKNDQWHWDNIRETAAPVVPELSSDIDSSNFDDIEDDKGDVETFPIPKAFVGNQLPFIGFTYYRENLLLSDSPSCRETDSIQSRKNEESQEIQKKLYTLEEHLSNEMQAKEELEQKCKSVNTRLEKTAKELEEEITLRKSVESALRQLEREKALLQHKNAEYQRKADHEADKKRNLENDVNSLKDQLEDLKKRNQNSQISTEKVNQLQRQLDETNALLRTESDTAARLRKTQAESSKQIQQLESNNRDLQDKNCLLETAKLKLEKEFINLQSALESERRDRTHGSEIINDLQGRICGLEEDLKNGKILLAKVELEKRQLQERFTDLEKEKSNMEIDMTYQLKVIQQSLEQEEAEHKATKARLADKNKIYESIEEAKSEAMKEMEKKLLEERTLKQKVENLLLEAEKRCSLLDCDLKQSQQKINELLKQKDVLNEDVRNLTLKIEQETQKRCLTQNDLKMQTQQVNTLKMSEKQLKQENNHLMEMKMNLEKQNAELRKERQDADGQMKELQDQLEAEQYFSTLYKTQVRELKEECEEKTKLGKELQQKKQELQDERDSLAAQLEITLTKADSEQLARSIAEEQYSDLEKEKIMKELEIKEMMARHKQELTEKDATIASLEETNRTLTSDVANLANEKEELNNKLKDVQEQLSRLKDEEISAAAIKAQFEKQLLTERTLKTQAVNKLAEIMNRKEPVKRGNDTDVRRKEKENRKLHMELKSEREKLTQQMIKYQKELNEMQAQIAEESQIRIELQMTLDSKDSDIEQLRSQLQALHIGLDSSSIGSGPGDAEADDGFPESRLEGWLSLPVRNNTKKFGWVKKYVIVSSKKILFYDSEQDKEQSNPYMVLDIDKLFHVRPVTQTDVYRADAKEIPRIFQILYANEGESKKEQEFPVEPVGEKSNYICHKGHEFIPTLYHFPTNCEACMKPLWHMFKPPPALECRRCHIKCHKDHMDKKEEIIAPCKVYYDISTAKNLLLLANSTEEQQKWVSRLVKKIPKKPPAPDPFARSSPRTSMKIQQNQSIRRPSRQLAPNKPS

| Molecule | IC50 [nM] |
| --- | --- |
| 4-((S)-3-amino-1-oxy-1-(thieno[2,3-c]pyridin-2-ylamino)prop-2-yl)benzyl(1s,4R)-4-((nitrooxy)methyl)cyclohexane-1-carboxylic acid [Example 27] | 4.62 |
| NCC(C(=O)Nc1cc2ccncc2s1)c1ccc(C(CO[N+](=O)[O-])O[N+](=O)[O-])cc1 (stereo not drawn) [Example 5, 1-(4-(3-amino-1-oxo-1-(thieno[2,3-c]pyridin-2-ylamino)prop-2-yl)phenyl)ethane-1,2-dinitrate] | 19.2 |
| NC[C@@H](C(=O)Nc1cc2ccncc2s1)c1ccc(COC(=O)C2CC(O[N+](=O)[O-])C2)cc1 (stereo partly drawn) [Example 6] | 1.3 |
| NCC(C(=O)Nc1cc2ccncc2s1)c1ccc(OC(CO[N+](=O)[O-])CO[N+](=O)[O-])cc1 (stereo not drawn) [Example 14, 2-(4-(3-amino-1-oxo-1-(thieno[2,3-c]pyridin-2-ylamino)propan-2-yl)phenoxy)propane-1,3-dinitrate] | 77.3 |
| NC[C@@H](C(=O)Nc1cc2ccncc2s1)c1ccc(COC(=O)C2CCC(O[N+](=O)[O-])CC2)cc1 (stereo partly drawn) [Example 15, (S)-4-(3-amino-1-oxy-1-(thieno[2,3-c]pyridin-2-ylamino)prop-2-yl)benzyl 4-(nitrooxy)cyclohexane-1-carboxylic acid] | 1.63 |
| NC[C@@H](C(=O)Nc1cc2ccncc2s1)c1ccc(COC(=O)c2ccc(CCO[N+](=O)[O-])cc2)cc1 [Example 16, (S)-4-(3-amino-1-oxy-1-(thieno[2,3-c]pyridin-2-ylamino)prop-2-yl)benzyl 4-(2-(nitrooxy)ethyl)benzoate] | 1.86 |
| Cc1cc(CCO[N+](=O)[O-])ccc1C(=O)OCc1ccc([C@@H](CN)C(=O)Nc2cc3ccncc3s2)cc1 [Example 17] | 5.44 |
| Cc1ccc(CCO[N+](=O)[O-])cc1C(=O)OCc1ccc([C@@H](CN)C(=O)Nc2cc3ccncc3s2)cc1 [Example 18] | 4.62 |
| NC[C@@H](C(=O)Nc1cc2ccncc2s1)c1ccc(COC(=O)[C@H]2CC[C@@H](O[N+](=O)[O-])CC2)cc1 [Example 19, 4-((S)-3-amino-1-oxy-1-(thieno[2,3-c]pyridin-2-ylamino)prop-2-yl)benzyl(1s,4R)-4-(nitrooxy)cyclohexane-1-carboxylate] | 1.33 |
| NC[C@@H](C(=O)Nc1cc2ccncc2s1)c1ccc(COC(=O)[C@H]2CC[C@H](O[N+](=O)[O-])CC2)cc1 [Example 20, 4-((S)-3-amino-1-oxy-1-(thieno[2,3-c]pyridin-2-ylamino)prop-2-yl)benzyl(1r,4S)-4-(nitrooxy)cyclohexane-1-carboxylate] | 1.43 |
| NC[C@@H](C(=O)Nc1cc2ccncc2s1)c1ccc(COC(=O)C2CC(CO[N+](=O)[O-])C2)cc1 (stereo partly drawn) [Example 23, (S)-4-(3-amino-1-oxy-1-(thieno[2,3-c]pyridin-2-ylamino)propan-2-yl)benzyl 3-((nitrooxy)methyl)cyclobutane-1-carboxylate] | 1.13 |
| NC[C@@H](C(=O)Nc1cc2ccncc2s1)c1ccc(COC(=O)[C@H]2C[C@H](O[N+](=O)[O-])C2)cc1 [Example 25, 4-((S)-3-amino-1-oxo-1-(thieno[2,3-c]pyridin-2-ylamino)propan-2-yl)benzyl (1r,3S)-3-(nitrooxy)cyclobutane-1-carboxylate] | 1.78 |
| CC(CO[N+](=O)[O-])(CO[N+](=O)[O-])C(=O)OCc1ccc([C@@H](CN)C(=O)Nc2cc3ccncc3s2)cc1 [Example 26, (S)-4-(3-amino-1-oxo-1-(thieno[2,3-c]pyridin-2-ylamino)prop-2-yl)benzyl 2-methyl-3-(nitrooxy)-2-((nitrooxy)methyl)propionate] | 9.9 |
| NC[C@@H](C(=O)Nc1cc2ccncc2s1)c1ccc(COC(=O)c2cccc(CCO[N+](=O)[O-])c2)cc1 [Example 28, (S)-4-(3-amino-1-oxy-1-(thieno[2,3-c]pyridin-2-ylamino)prop-2-yl)benzyl 3-(2-(nitrooxy)ethyl)benzoate] | 1.32 |
| NC[C@@H](C(=O)Nc1cc2ccncc2s1)c1ccc(COC(=O)CC2(CO[N+](=O)[O-])CC2)cc1 [Example 29, (S)-4-(3-amino-1-oxy-1-(thieno[2,3-c]pyridin-2-ylamino)prop-2-yl)benzyl 2-(1-((nitrooxy)methyl)cyclopropyl acetate] | 2.74 |
| CC(C)(CCCO[N+](=O)[O-])C(=O)OCc1ccc([C@@H](CN)C(=O)Nc2cc3ccncc3s2)cc1 [Example 30, (S)-4-(3-amino-1-oxy-1-(thieno[2,3-c]pyridin-2-ylamino)prop-2-yl)benzyl 2,2-dimethyl-5-(nitrooxy)valerate] | 16.5 |
| NC[C@@H](C(=O)Nc1cc2cnccc2s1)c1ccc(COC(=O)CC[C@H](CO[N+](=O)[O-])O[N+](=O)[O-])cc1 [Example 33, 4-((S)-3-amino-1-oxy-1-(thieno[2,3-c]pyridin-2-ylamino)prop-2-yl)benzyl(R)-4,5-bis(nitrooxy)valeric acid] | 1.18 |
| NC[C@@H](C(=O)Nc1cc2ccncc2s1)c1ccc(COC(=O)[C@H]2C[C@@H](CO[N+](=O)[O-])C2)cc1 [Example 34, (1S,3R)-4-((S)-3-amino-1-oxy-1-(thieno[2,3-c]pyridin-2-ylamino)propan-2-yl)benzyl 3-((nitrooxy)methyl)cyclobutane-1-carboxylate] | 1.04 |
| NC[C@@H](C(=O)Nc1cc2ccncc2s1)c1ccc(COC(=O)[C@H]2C[C@H](CO[N+](=O)[O-])C2)cc1 [Example 35, (1R,3S)-4-((S)-3-amino-1-oxy-1-(thieno[2,3-c]pyridin-2-ylamino)propan-2-yl)benzyl 3-((nitrooxy)methyl)cyclobutane-1-carboxylate] | 6.5 |
| NC[C@@H](C(=O)Nc1cc2ccncc2s1)c1ccc(COC(=O)C2CC(CO[N+](=O)[O-])(CO[N+](=O)[O-])C2)cc1 [Example 36, (S)-4-(3-amino-1-oxy-1-(thieno[2,3-c]pyridin-2-ylamino)prop-2-yl)benzyl 3,3-bis((nitrooxy)methyl)cyclobutane-1-carboxylate] | 32.5 |

Now from value to molecule:

| IC50 [nM] | Molecule |
| --- | --- |
| 5.59 | NCC(C(=O)Nc1ccc2cnccc2c1)c1ccc(CO[N+](=O)[O-])cc1 (stereo not drawn) [Example 2, (3-amino-1-(isoquinolin-6-ylamino)-1-oxoprop-2-yl)benzyl nitrate] |
| 10.8 | NCC(C(=O)Nc1cc2ccncc2s1)c1ccc(CCO[N+](=O)[O-])cc1 (stereo not drawn) [Example 3] |
| 1.78 | NC[C@@H](C(=O)Nc1ccc2cnsc2c1)c1ccc(CO[N+](=O)[O-])cc1 [Example 4, (S)-4-(3-amino-1-(benzo[d]isothiazol-6-ylamino)-1-oxoprop-2-yl)benzyl nitrate] |
| 19.3 | NCC(C(=O)Nc1cc2ccncc2s1)c1ccc(CCCCO[N+](=O)[O-])cc1 (stereo not drawn) [Example 10, 4-(4-(3-amino-1-oxo-1-(thieno[2,3-c]pyridin-2-ylamino)prop-2-yl)phenyl)butyl nitrate] |
| 2.95 | NC[C@@H](C(=O)Nc1cc2c(F)cncc2s1)c1ccc(CO[N+](=O)[O-])cc1 [Example 12, (S)-4-(3-amino-1-((4-fluorothieno[2,3-c]pyridin-2-yl)amino)-1-oxoprop-2-yl)benzyl nitrate] |
| 1.23 | NC[C@@H](C(=O)Nc1cc2ccncc2s1)c1ccc(COC(=O)c2cccc(CO[N+](=O)[O-])c2)cc1 [Example 21, (S)-4-(3-amino-1-oxo-1-(thieno[2,3-c]pyridin-2-ylamino)prop-2-yl)benzyl 3-((nitrooxy)methyl)benzoate] |
| 1.6 | NC[C@@H](C(=O)Nc1cc2ccncc2s1)c1ccc(COC(=O)c2ccc(CO[N+](=O)[O-])cc2)cc1 [Example 22, (S)-4-(3-amino-1-oxo-1-(thieno[2,3-c]pyridin-2-ylamino)prop-2-yl)benzyl 4-((nitrooxy)methyl)benzoate] |
| 0.45 | NC[C@@H](C(=O)Nc1cc2ccncc2s1)c1ccc(COC(=O)NCCO[N+](=O)[O-])cc1 [Example 24, (S)-4-(3-amino-1-oxy-1-(thieno[2,3-c]pyridin-2-ylamino)prop-2-yl)benzyl(2-(nitrooxy)ethyl)carbamate] |
| 1.58 | NC[C@@H](C(=O)Nc1cc2ccncc2s1)c1ccc(COC(=O)CCCCCO[N+](=O)[O-])cc1 [Example 31, (S)-4-(3-amino-1-oxy-1-(thieno[2,3-c]pyridin-2-ylamino)propan-2-yl)benzyl 6-(nitrooxy)hexanoate] |
| 3.11 | NC[C@@H](C(=O)Nc1cc2ccncc2s1)c1ccc(COC(=O)C2(CO[N+](=O)[O-])CC2)cc1 [Example 32, (S)-4-(3-amino-1-oxy-1-(thieno[2,3-c]pyridin-2-ylamino)propan-2-yl)benzyl 1-((nitrooxy)methyl)cyclopropane carboxylate] |

Reference: US20220332726A1, “NITROXIDE DERIVATIVE OF ROCK KINASE INHIBITOR” (VIVAVISION (SHANGHAI) LTD, priority 2020, published 2022)
